Data as given in BindingDB's records for doi:10.1016/S0960-894X(01)80999-9 (1993).

Experiments:
[1] = In vitro antagonistic activity towards LTB4 receptor was evaluated by inhibition of binding of [3H]LTB4 to human neutrophils
[2] = target: Leukotriene B4 receptor (Cavia porcellus); experiment: Compound was evaluated for inhibition of binding of [3H]LTB4 to LTB4 receptor in guinea-pig lung membranes

Ki [1] [nM]	Ki [2] [nM]	Compound
6.8	–	CCc1cc(C(C)=O)c(O)cc1OCCCOc1ccc(C(=O)c2cccc(C(=O)O)c2)cc1CCC(=O)O [3-[2-[3-(4-acetyl-2-ethyl-5-olatophenoxy)propoxy]-5-(3-carboxylatobenzoyl)phenyl]propanoate]
7.8	–	COc1ccc(/C=C/CCCCOc2ccc(C(=O)c3cccc(C(=O)O)c3)cc2CCC(=O)O)cc1 [(Z)-3-{3-(2-Carboxy-ethyl)-4-[6-(4-methoxy-phenyl)-hex-5-enyloxy]-benzoyl}-benzoic acid]
–	45	COc1ccc(/C=C/CCCCOc2ccc3c(=O)c4cc(C(=O)O)ccc4oc3c2CCC(=O)O)cc1 [LY-210073]
751	–	CCc1cc(C(C)=O)c(O)cc1OCCCOc1ccc2c(=O)c3cc(C(=O)O)ccc3oc2c1 [disodium 6-[3-(4-acetyl-2-ethyl-5-olatophenoxy)propoxy]-9-oxo-9H-2-xanthenecarboxylate]
